{"source": "paper PMC5908160", "about": "“Inhibition of sperm motility in male macaques with EP055, a potential non-hormonal male contraceptive” (PLoS ONE, 2018)", "key": {"human sperm": {"system": "human sperm", "test": "CASA (Computer Assisted Sperm Analysis) assay of human sperm motility", "type": "cell-based", "details": "n = 4 donors, read-out: average relative motility index (RMI) IC50", "method": "Human semen samples were obtained from the Department of Obstetrics and Gynecology, University of North Carolina Memorial Hospital, Chapel Hill, NC. […] Semen samples were allowed to liquefy for 30 minutes and subjected to standard semen analysis to determine acceptability before freezing. All samples were stored in liquid nitrogen, and de-identified by the Department of Obstetrics and Gynecology, University of North Carolina Memorial Hospital, Chapel Hill, NC before further processing. A density gradient (Isolate catalog number 99264, Irving Scientific, Irving CA, or SpermCare catalog number 2221 and 2222, InvitroCare Inc., Frederick MD) was used to prepare spermatozoa for further analysis. At least 3 independent experiments were done per assay, each using a single donor.\nComputer Assisted Sperm Analysis (CASA) was conducted as previously described. Briefly sperm were washed after the density gradient with EP buffer-0.4% BSA and resuspended in modified M16 for compound treatments. Sperm were diluted to 5 x 10^6/mL in 12x75 mm glass tubes with the appropriate treatment and incubated at 37°C in 5% CO2. […] The relative mobility index (RMI) is a measure of the effect of compound on sperm and is calculated as the VSL x %normal motility and normalized to the appropriate DMSO control."}, "[1]": {"test": "EP055 testis, epididymis and plasma levels in cynomolgus males after i.v. infusion", "type": "in vivo, Macaca fascicularis", "details": "63.25 mg/kg i.v.", "excerpt": "Evaluation of the effects of an i.v. infusion of EP055 on male cynomolgus macaque reproductive system was done by Sinclair Research Center, LLC. (Study No: S14574). This study was reviewed and approved by the Sinclair IUCAC committee and complied with all applicable sections of USDA Policy 12 and the Final Rules of the Animal Welfare Act regulation (9 CFR). This study used 6 naïve cynomolgus males (3-4 yrs old, 4 kg or less). Doses of EP055 in 5% DMSO-PBS, pH 7.6 or vehicle control were infused by i.v. at 63.25 mg/kg. The infusion rate was 4 ml/min. Plasma and tissues (epididymis and testis) were collected at 2 hr or 6 hr and immediately frozen on dry ice. Samples were stored at -80 °C until processing. Half-life was approximated using the 2 hr and 6 hr points and an estimation of the initial plasma level using the initial dose of […], the circulating blood volume of 65 ml/kg, average hematocrit of 41.7 (S2 Table) and average animal size (3.72 kg for n=4).\n(§1) Semen or tissue samples were thawed at room temperature. PBS at pH 7.6 was added to each sample at a ratio of 2:1 and sonicated in an ice chilled bath for 5 minutes before homogenization using a Polytron unit (Kinematica AG, Lucerne, Switzerland). An aliquot (25 uL) of each sample homogenate was processed as described for plasma samples."}, "[2]": {"test": "EP055 plasma and semen levels in rhesus males after i.v. infusion", "type": "in vivo, Macaca mulatta", "excerpt": "Semen was collected by direct penile stimulation with a P-T Electronics Model 303 PTE 110 Volt AC stimulator equipped with electrocardiogram pad electrodes (10–35 V, 20 ms duration, 18 pulses/sec) as previously described. Semen was collected weekly for 3 weeks to establish baseline parameters for each male. Samples were inspected visually to determine sperm motility and suitability for the study. Sperm motility data from male 28106 presented in S1 Table is representative of pre-treatment samples. Immediately after collection, the seminal plug was separated from the liquefied fraction, placed into a cryovial, flash frozen in liquid nitrogen, and stored at -80C until evaluation for drug levels. Spermatozoa were prepared by centrifugation (7 min, 200 g) of the liquid portion of the ejaculate and resuspending the sperm pellet in TALP-HEPES medium containing 0.3% bovine serum albumin at 37°C. An aliquot was taken to determine concentration using a hemocytometer, percent motility and forward progression as previously described. Baseline semen samples were collected from each male twice during the week prior to treatment. Semen was collected from each male 6–8 hr, 28–30 hr, and 78 hr post-infusion of low dose EP055 (75–80 mg/kg body weight) intravenously. After a one-week recovery period, a baseline semen sample was obtained, and the following week semen samples were collected as described above after an intravenous infusion of high dose EP055 (125–130 mg/kg).\nSample preparation and LC-MS/MS analysis were done by OpAns LLC (Durham, NC). Plasma samples (both rat and macaque) were thawed at room temperature and processed by adding 160 µL of methanol (including 10 µL internal standard) to 25 µL of the sample. Samples were vortexed for 5 minutes, centrifuged at 2684 x g for 5 minutes. 50 µL of supernatant was removed for analysis by HPLC-MS/MS.\nas §1\nPrior to infusion of EP055, each male was sedated with ketamine by the surgical staff at ONPRC and transported to the operating room. After positioning in dorsal recumbency, the male was intubated and placed under inhalant (isoflurane) anesthesia. Bilateral intravenous catheters were placed in cephalic veins, one for infusion and one for back-up. A percutaneous arterial line was placed in the right femoral artery for direct blood pressure measurement. Invasive blood pressure, heart rate, SpO2, and respirations were monitored by the surgical staff throughout the procedure. Initially, the low doses of EP055 in 5% DMSO-PBS 7.6 was infused by i.v. at 75-80 mg/kg, using a Medfusion 3500 pump (Smiths Medical, St. Paul, MN), and was started at a low flow rate ([…]). In 3 of 4 males, a 5-10% increase in blood pressure and heart rate were noted within the first 2-3 minutes of infusion of EP055. In these cases, the infusion was temporarily suspended until these parameters subsequently declined to normal. The infusion rate was then doubled to 1.2 ml/kg/min after 5-10 minutes and the final volume of EP055 infusate was administered. Blood pressure and heart rate remained normal throughout the rest of the infusion interval. The total volume of EP055 infusate ranged from 72 ml – 136 ml, depending upon the weight of the animal, and the duration of infusion was 10-13 minutes. Following completion of the infusion, all animals recovered normally. Animals were monitored by clinical veterinary staff immediately, at 1 hr, 2 hr and 6-8 hr post-infusion, and daily for up to 30 days after the final infusion of EP055. […]"}}, "note": "Where two headings read alike, the source gives them in different places.", "data": [{"smiles": "COC(=O)NNc1nc(Nc2ccc(NC(C)=O)c(O)c2)nc(SCC(=O)O)n1", "note": "[EP055]", "values": [{"measurement": "IC50", "setting": "human sperm", "value": 200, "unit": "µM"}, {"measurement": "epididymis versus testis level (ug/mg of tissue)", "setting": "[1]; 2 and 6 hours", "value": "significantly (p < 0.05) more EP055 (ug/mg of tissue) in the epididymis after 2 hours but not after 6 hours"}, {"measurement": "total amounts in testis versus epididymis", "setting": "[1]; 2 and 6 hours", "value": "not significantly different at 2 and 6 hours"}, {"measurement": "presence in testis and epididymis", "setting": "[1]; 2 and 6 hours post-infusion", "value": "detected in testis and epididymis two hours and six hours post-infusion"}, {"measurement": "half-life", "setting": "[1]; cynomolgus monkey, iv, extrapolated from 2 hr and 6 hr points and calculated initial plasma concentration, read-out: estimated plasma half-life (t1/2) in target tissue experiment", "value": 11.9, "unit": "min"}, {"measurement": "concentration", "setting": "[2]; high dose 125–130 mg/kg, 6–8 hr, read-out: Plasma levels", "value": "0.97 ± 0.66", "unit": "µM"}, {"measurement": "concentration", "setting": "[2]; high dose 125–130 mg/kg, 6–8 hr, read-out: Semen Levels", "value": 539, "unit": "µM"}, {"measurement": "concentration", "setting": "[2]; high dose 125–130 mg/kg, 13–17 days, read-out: Semen Levels", "value": "0.9 ± 0.9", "unit": "µM"}, {"measurement": "concentration", "setting": "[2]; low dose 75–80 mg/kg, 14–18 days, read-out: Semen Levels", "value": "0.4 ± 0.3", "unit": "µM"}, {"measurement": "concentration at 30 h", "setting": "[2]; rhesus monkey, plasma, iv, high dose 125–130 mg/kg, read-out: Plasma levels", "value": "0.02 ± 0.01", "unit": "µM"}, {"measurement": "concentration at 6 h", "setting": "[2]; rhesus monkey, plasma, iv, low dose 75–80 mg/kg, 6 hr after infusion, mean ± SEM 4 animals, read-out: Plasma levels", "value": "0.62 ± 0.3", "unit": "µM"}, {"measurement": "concentration at 30 h", "setting": "[2]; rhesus monkey, plasma, iv, low dose 75–80 mg/kg, read-out: Plasma levels", "value": 0.01, "unit": "µM"}, {"measurement": "concentration at 30 h", "setting": "[2]; rhesus monkey, semen, iv, high dose 125–130 mg/kg, read-out: Semen Levels", "value": 376, "unit": "µM"}, {"measurement": "concentration at 78 h", "setting": "[2]; rhesus monkey, semen, iv, high dose 125–130 mg/kg", "value": "101 ± 30", "unit": "µM"}, {"measurement": "concentration at 6 h", "setting": "[2]; rhesus monkey, semen, iv, low dose 75–80 mg/kg, 6 hr, read-out: Semen Levels", "value": 293, "unit": "µM"}, {"measurement": "concentration at 30 h", "setting": "[2]; rhesus monkey, semen, iv, low dose 75–80 mg/kg, read-out: Semen Levels", "value": "128 ± 46", "unit": "µM"}, {"measurement": "concentration at 78 h", "setting": "[2]; rhesus monkey, semen, iv, low dose 75–80 mg/kg", "value": "61 ± 22", "unit": "µM"}, {"measurement": "Kp", "setting": "[2]; rhesus monkey, semen/plasma, iv, high dose 125–130 mg/kg, 6–8 hr, read-out: Ratio of S/P", "value": 556}, {"measurement": "Kp at 6 h", "setting": "[2]; rhesus monkey, semen/plasma, iv, low dose 75–80 mg/kg, 6 hr, read-out: Ratio of S/P", "value": 473}, {"measurement": "concentration", "setting": "[2]; rhesus, 6 and 30 hours after high-dose infusion, read-out: semen levels", "value": "> 300", "unit": "µM"}, {"measurement": "detection in plasma", "setting": "[2]; rhesus, 6–8 hours post-infusion", "value": "detected"}, {"measurement": "detection in plasma", "setting": "[2]; rhesus, 28–30 hours post-infusion", "value": "barely detectable"}, {"measurement": "time semen levels detectable post-infusion", "setting": "[2]; rhesus, low and high dose", "value": "up to 78 hours"}]}]}
